Measured values reported in US11555035B2, “Heterocyclic compound and harmful arthropod-controlling agent containing same” (SUMITOMO CHEMICAL COMPANY, LIMITED, priority 2017, dated 2023).

System: German cockroaches (Blattella germanica)
Experiment: Test method 9: treated filter paper with sucrose, German cockroaches
Format: in vivo
Details: 500 ppm, 0.7 mL on filter paper, male adults, after 6 days
Protocol: Next, Test Examples are used to show effects of the Present compounds on harmful arthropods. In the following Test Examples, the tests were carried out at 25° C.
Each test compound is formulated according to the process described in the Formulation Example 5 to obtain each formulation, and water is added thereto to prepare a diluted solution containing a prescribed concentration of each test compound.
A filter paper having a diameter of 5.5 cm is lined with the inside bottom of a cup having a diameter of 5.5 cm, each of said diluted solutions (0.7 mL) is added dropwise on the filter paper, and sucrose (30 mg) is homogeneously placed into said cup as a feed. Two(2) male adult German cockroaches (Blattella germanica) are released into said cup, and the cup is covered. After 6 days, life and death of the German cockroach are examined, the number of the dead insects is counted, and the mortality of insects is calculated by the following equation. Mortality(%)=(Number of dead insects/Number of test insects)×100

SMILES	mortality [%]
CCS(=O)(=O)c1cc(-c2ncc(C#N)cn2)cnc1-c1nc2cc(C(F)(F)F)cnc2n1C [compound 2]	100
CCS(=O)(=O)c1cc(-c2ncc(C#N)cn2)c(N)nc1-c1nc2cc(C(F)(F)F)cnc2n1C [compound 7]	100
